# Results as given in PubChem BioAssay (NCI).
#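 Where inhibition never reached the appropriate level, the endpoint shown equals the highest concentration tested. Otherwise, values were interpolated linearly from a five-concentration, 48-hour dose response in 96-well plates. TGI: total growth inhibition.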
# How the values were obtained:
# Experiment in all cases: NCI tumour cell line growth inhibition, 48 h
# HOP-18 NSCLC = tested on: HOP-18 NSCLC
# P388 leukemia = tested on: P388 leukemia
# P388/ADR leukemia = tested on: P388/ADR leukemia
# ACHN renal = tested on: ACHN renal
# LXFL 529 NSCLC = tested on: LXFL 529 NSCLC
# RXF-631 renal = tested on: RXF-631 renal
# MDA-MB-231 breast = tested on: MDA-MB-231 breast
# PC-3 prostate = tested on: PC-3 prostate
# MDA-MB-435 = tested on: MDA-MB-435
# BT-549 breast = tested on: BT-549 breast
# DU-145 prostate = tested on: DU-145 prostate
SMILES,TGI (HOP-18 NSCLC),TGI (P388 leukemia),TGI (P388/ADR leukemia),TGI (ACHN renal),TGI (MDA-MB-231 breast),TGI (PC-3 prostate),TGI (MDA-MB-435),TGI (BT-549 breast),TGI (DU-145 prostate),further results
CC(C)=CCC/C(C)=C/CCC1(C)C=Cc2c(c3ccccc3oc2=O)O1 (stereo not drawn),32.6 µM,52.6 µM,> 62.6 µM,,,,,,,
O=C(O)C12CC3CC(C1)C2C=C3P(=O)(O)O (stereo not drawn),,,,> 100 µM,,,,,,TGI (LXFL 529 NSCLC): > 100 µM
COc1cc(/C=C/C2=C(C#N)C(=O)OC2(C)C)ccc1O,> 100 µM,,,> 100 µM,,,,,,TGI (RXF-631 renal): > 100 µM
Cc1cn(C2CC(O)C(Cn3nncc3Cn3ncc(=O)[nH]c3=O)O2)c(=O)[nH]c1=O (stereo not drawn),,,,> 100 µM,> 100 µM,> 100 µM,> 100 µM,> 100 µM,> 100 µM,
C=CCNC(=O)CN(CC(=O)OC)C1CCCCC1N(CC(=O)OC)CC(=O)OC (stereo not drawn),,,,> 100 µM,> 100 µM,> 100 µM,> 100 µM,> 100 µM,> 100 µM,
Cc1c(C2=NN=C(N=Nc3c(O)cccc3O)/C2=C/c2ccccc2)c(=O)n(-c2ccccc2)n1C,> 100 µM,> 100 µM,> 100 µM,,,,,,,
CC(C)=CC(=O)OC1C2C(C)=CC(O)C(O)C2(C)C2C3(O)OCC24C(CC(=O)OC14)C(C)C3O (stereo not drawn),7.58 µM,0.0201 µM,7.09 µM,,,,,,,
COc1cc(C(=O)C2CC3(CCC2(O)c2cc(OC)c(OC)c(OC)c2)CC(=O)Nc2ccccc2C3=O)cc(OC)c1OC (stereo not drawn),,,,,> 100 µM,> 100 µM,> 100 µM,> 100 µM,> 100 µM,
Nc1n[nH]c(CCCCCCCc2nc(N)n[nH]2)n1,,,,> 100 µM,,,,,,TGI (LXFL 529 NSCLC): > 100 µM
